Patent US20040044008A1, “Use of therapeutic benzamide derivatives” (priority 2000, published 2004)

| SMILES | melting point [°C] |
| --- | --- |
| O=C(Nc1ccc(N2CCN(Cc3nccs3)CC2)cc1)c1ccccc1-c1ccc(C(F)(F)F)cc1 (hydrate or solvate) [Example 59, 4′-Trifluoromethyl-biphenyl-2-carboxylic acid [4-(4-thiazol-2-ylmethyl-piperazin-1-yl)-phenyl]-amide] | 187 to 189 |
| COc1cccc(C(=O)Nc2ccc(N3CCN(Cc4cccc(C#N)c4)CC3)cc2)c1OCCc1ccccc1 [Example 30, N-[4-[4-(3-Cyano-benzyl)-piperazin-1-yl]-phenyl]-3-methoxy-2-phenethyloxy-benzamide] | 140 to 142 |
| N#Cc1cccc(CN2CCN(c3ccc(NC(=O)c4ccc(Cl)cc4-c4ccc(C(F)(F)F)cc4)cc3)CC2)c1 [Example 10, 5-Chloro-4′-trifluoromethyl-biphenyl-2-carboxylic acid [4-[4-(3-cyano-benzyl)-piperazin-1-yl]-phenyl]-amide] | 164 to 165 |
| N#Cc1cccc(CN2CCN(c3ccc(NC(=O)c4ccccc4Oc4ccccc4)cc3)CC2)c1 (hydrate or solvate) [Example 14, N-[4-[4-(3-Cyano-benzyl)-piperazin-1-yl]-phenyl]-2-phenoxy-benzamide] | 133 to 134 |
| COc1cccc(C(=O)Nc2ccc(N3CCN(Cc4ccc[nH]4)CC3)cc2)c1-c1ccc(C(C)C)cc1 [Example 68, 4′-Isopropyl-6-methoxy-biphenyl-2-carboxylic acid [4-(4-(1H-pyrrol-2-ylmethyl)-piperazin-1-yl)-phenyl]-amide] | 195 to 197 |
| CC(C)=CCN1CCN(c2ccc(NC(=O)c3ccccc3-c3ccc(C(F)(F)F)cc3)cc2)CC1 [Example 46, 4′-Trifluoromethyl-biphenyl-2-carboxylic acid [4-(4-(3-methyl-but-2-enyl)-piperazin-1-yl]-phenyl]-amide] | 203 to 205 |
| COc1ccc(C(=O)Nc2ccc(N3CCN(Cc4cccc(C#N)c4)CC3)cc2)c(-c2ccc(C(F)(F)F)cc2)c1 [Example 17, 5-Methoxy-4′-trifluoromethyl-biphenyl-2-carboxylic acid [4-[4-(3-cyano-benzyl)-piperazin-1-yl]-phenyl]-amide] | 160 to 164 |
| COC(=O)c1cccc(CN2CCN(c3ccc(NC(=O)c4ccccc4-c4ccc(C(F)(F)F)cc4)cc3)CC2)c1 [Example 55, 4′-Trifluoromethyl-biphenyl-2-carboxylic acid [4-[4-(3-carbomethoxy-benzyl)-piperazin-1-yl]-phenyl]-amide] | 190 to 192 |
| O=C(Nc1ccc(N2CCN(Cc3cnccn3)CC2)cc1)c1ccccc1-c1ccc(C(F)(F)F)cc1 [Example 58, 4′-Trifluoromethyl-biphenyl-2-carboxylic acid [4-(4-pyrazin-2-ylmethyl-piperazin-1-yl)-phenyl]-amide] | 183 to 185 |
| O=C(Nc1ccc(N2CCN(CCCO)CC2)cc1)c1ccccc1-c1ccc(C(F)(F)F)cc1 [Example 44, 4′-Trifluoromethyl-biphenyl-2-carboxylic acid [4-(4-(3-hydroxy-propyl)-piperazin-1-yl]-phenyl]-amide] | 208 to 210 |
| Cc1ccc(-c2ccc(C(F)(F)F)cc2)c(C(=O)Nc2ccc(N3CCN(Cc4cccc(C#N)c4)CC3)cc2)c1 [Example 18, 4-Methyl4′-trifluoromethyl-biphenyl-2-carboxylic acid [4-[4-(3-cyano-benzyl)-piperazin-1-yl]-phenyl]-amide] | 120 to 124 |
| N#Cc1cccc(CN2CCN(c3ccc(NC(=O)c4ccccc4-c4ccc(F)cc4)cc3)CC2)c1 [Example 23, 4′-Fluoro-biphenyl-2-carboxylic acid [4-[4-(3-cyano-benzyl)-piperazin-1-yl]-phenyl]-amide] | 200 to 202 |
| CCCN1CCN(c2ccc(NC(=O)c3ccccc3-c3ccc(C(F)(F)F)cc3)cc2)CC1 [Example 65, 4′-Trifluoromethyl-biphenyl-2-carboxylic acid [4-(4-propyl-piperazin-1-yl)-phenyl]-amide] | 207 to 209 |
| N#Cc1cc(CN2CCN(c3ccc(NC(=O)c4ccccc4-c4ccc(C(F)(F)F)cc4)cc3)CC2)ccc1F [Example 47, 4′-Trifluoromethyl-biphenyl-2-carboxylic acid [4-(4-(3-cyano-4-fluoro-benzyl)-piperazin-1-yl)-phenyl]-amide] | 168 to 170 |
| N#CCN1CCN(c2ccc(NC(=O)c3ccccc3-c3ccc(C(F)(F)F)cc3)cc2)CC1 [Example 41, 4′-Trifluoromethyl-biphenyl-2-carboxylic acid [4-(4-cyanomethyl-piperazin-1-yl]-phenyl]-amide] | 244 to 246 |
| CCOC(=O)CN1CCN(c2ccc(NC(=O)c3ccccc3-c3ccc(C(F)(F)F)cc3)cc2)CC1 [Example 42, 4′-Trifluoromethyl-biphenyl-2-carboxylic acid [4-(4-ethoxycarbonylmethyl-piperazin-1-yl)-phenyl]-amide] | 167 to 169 |
| O=C(Nc1ccc(N2CCN(Cc3cc[nH]n3)CC2)cc1)c1ccccc1-c1ccc(C(F)(F)F)cc1 [Example 71, 4′-Trifluoromethyl-biphenyl-2-carboxylic acid {4-[4-(1H-pyrazole-3-ylmethyl)-piperazine-1-yl)-phenyl}-amide] | 194 to 196 |
| COc1cccc(C(=O)Nc2ccc(N3CCN(Cc4cccc(C#N)c4)CC3)cc2)c1OCCCc1ccccc1 [Example 33, N-[4-[4-(3-Cyano-benzyl)-piperazin-1-yl]-phenyl]-3-methoxy-2-(3-phenyl-propoxy)-benzamide] | 134 to 136 |
| CCOCCN1CCN(c2ccc(NC(=O)c3ccccc3-c3ccc(C(F)(F)F)cc3)cc2)CC1 [Example 43, 4′-Trifluoromethyl-biphenyl-2-carboxylic acid [4-(4-(2-ethoxy-ethyl)-piperazin-1-yl]-phenyl]-amide] | 176 to 178 |
| N#Cc1cccc(CN2CCN(c3ccc(NC(=O)c4ccccc4OCCC4CCCCC4)cc3)CC2)c1 [Example 32, N-[4-[4-(3-Cyano-benzyl)-piperazin-1-yl]-phenyl]-2-(2-cyclohexyl-ethoxy)-benzamide] | 119 to 121 |
| CC(=O)c1cccc(CN2CCN(c3ccc(NC(=O)c4ccccc4-c4ccc(C(F)(F)F)cc4)cc3)CC2)c1 [Example 66, 4′-Trifluoromethyl-biphenyl-2-carboxylic acid [4-(4-(3-acetyl-benzyl)-piperazin-1-yl)-phenyl]-amide] | 181 to 183 |
| COc1ccc(C(=O)Nc2ccc(N3CCN(Cc4cccc(C#N)c4)CC3)cc2)c(-c2ccccc2)c1 [Example 12, 5-Methoxy-biphenyl-2-carboxylic acid [4-[4-(3-cyano-benzyl)-piperazin-1-yl]-phenyl]-amide] | 159 to 161 |
| O=C(Nc1ccc(N2CCN(Cc3ccccn3)CC2)cc1)c1ccccc1-c1ccc(C(F)(F)F)cc1 (hydrate or solvate) [Example 57, 4′-Trifluoromethyl-biphenyl-2-carboxylic acid [4-(4-pyridin-2-ylmethyl-piperazin-1-yl)-phenyl]-amide] | 168 to 170 |
